Activity calls are given as the source filed them. The rule behind the calls is not given here.
Key:
Canis familiaris [1] = experiment: Evaluation of antihypertensive activity renally hypertensive dog at dose 10,30,100mg/kg(po); Inactive; type: functional, organism-based; settings: Canis lupus familiaris
Canis familiaris [2] = experiment: Evaluation of antihypertensive activity renally hypertensive dog at dose 10 mg/kg; type: functional, Canis lupus familiaris
Rattus norvegicus [3] = experiment: Evaluation of antihypertensive activity in DOCA/salt hypertensive rats at peroral dose of 10,30,100 mg /kg; value ranges from 12-20%; type: functional
Rattus norvegicus [4] = experiment: Evaluation of antihypertensive activity in spontaneously hypertensive rats at peroral dose of 10, 30,100 mg /kg; type: functional
Rattus norvegicus [5] = experiment: Evaluation of antihypertensive activity in DOCA/salt hypertensive rats at peroral dose of 10 mg/kg; no effect on HR; Inactive; type: functional, organism-based; parameters: dose 10 mg/kg
Rattus norvegicus [6] = experiment: Evaluation of decrease in heart rate (antihypertensive activity) in spontaneously hypertensive rats after 3-6h 0f peroral dose of 100 mg /kg; type: functional

With `NCC/N=C(\S)Nc1c(Cl)cccc1Cl` the “Reduction in arterial blood pressure” value (Canis familiaris [1]) was “inactive”, the “Reduction in arterial blood pressure” value (Canis familiaris [2]) was 7% and the “Decrease in blood pressure” value (Rattus norvegicus [3]) was 12%. The “Reduction in blood pressure” value (Rattus norvegicus [4]) was 12.7%, the “Reduction in arterial blood pressure” value (Rattus norvegicus [5]) was “inactive” and the “Reduction in heart rate” value (Rattus norvegicus [6]) was 12.7%.

— ChEMBL document CHEMBL1121376, “Antihypertensive (2-aminoethyl)thiourea derivatives. 2” (1980)
